Experimental data as given in patent US4331659A, “Antibiotic U-62,162 and process of making” (The Upjohn Company, priority 1980, dated 1982).
≈ marks a conversion by molar mass, not a printed value.

Assays:
Solubilities = type: physicochemical; conditions: lower alcohols (1-4 carbons), esters, ethers, aromatic hydrocarbons, dimethylformamide, dimethylsulfoxide, lower ketones (3-6 carbons)
S. aureus 6029 = assay: disc plate assay (zone of inhibition, BU); type: cell-based; conditions: essentially pure crystalline, after countercurrent distribution
Protocol: Buffered (pH 5.8) silica gel is prepared by treating 1 kg of silica gel 60 with a solution of 54.4 g of KH2 PO4 in 800 ml of water. This is dried 16 hours at 110°. A 1 inch (diameter) column containing 60 g of buffered (pH 5.8) silica gel is poured in a slurry with chloroform. To this is added 250 mg of crude U-62,162, prepared as described above, in chloroform. The column is developed first with 120 ml of CHCl3, then with CHCl3 :MeOH (94:6 v/v). Fractions of 5 ml each are collected beginning when the mixed solvent is introduced. They are assayed by plating 12 mm discs containing […] aliquots on S. aureus 6029 trays. Fractions 55-65, containing most of the activity, are pooled and evaporated, 90 mg, […], 17,200 total BU.
A preparation of antibiotic U-62,162, as described above, (3 g) is distributed for 300 transfers in the two-phase solvent system afforded by ethyl acetate:ethanol (95%):cyclohexane:water (2:3:3:2 v/v). Phase volumes are 10 ml each. Fractions 120-150 are combined and the residue from these after evaporation affords essentially pure crystalline antibiotic U-62,162, 1 g, assaying 800-1500 BU/mg against S. aureus 6029. A BU is the amount of material distributed on a 12 mm disc which will give a 20 mm zone of inhibition.

Gram-positive bacteria = assay: antibacterial activity against Gram-positive bacteria; type: cell-based
Protocol: (§1) The antibacterial assay is a standard agar dilution assay. The MIC is determined by standard methods using two-fold dilutions of the antibiotic in Brain Heart Infusion Broth (Difco Lab., Detroit, Michigan). The inocula are overnight cultures of the test organisms, diluted so that the final population contains approximately 10^5 cells/ml. The solutions are incubated at 28° to 37° C. for 24 hours. The lowest antibiotic concentration which allows no growth=MIC or minimum inhibitory concentration.

Streptococcus pyogenes = assay: standard agar dilution assay (MIC); type: cell-based; conditions: UC 152; 24 hours, 28° to 37° C.
Protocol: as §1

Streptococcus pneumoniae = assay: standard agar dilution assay (MIC); type: cell-based; conditions: UC 41; 24 hours, 28° to 37° C.
Protocol: as §1

Escherichia coli = assay: standard agar dilution assay (MIC); type: cell-based; conditions: UC 45; 24 hours, 28° to 37° C.
Protocol: as §1

Pseudomonas aeruginosa = assay: standard agar dilution assay (MIC); type: cell-based; conditions: UC 95; 24 hours, 28° to 37° C.
Protocol: as §1

Enterococcus sp. = assay: standard agar dilution assay (MIC); type: cell-based; conditions: UC 701; 24 hours, 28° to 37° C.
Protocol: as §1

Staphylococcus aureus = assay: standard agar dilution assay (MIC); type: cell-based; conditions: 24 hours, 28° to 37° C.
Protocol: as §1

Streptococcus faecalis = assay: standard agar dilution assay (MIC); type: cell-based; conditions: UC 694; 24 hours, 28° to 37° C.
Protocol: as §1

Klebsiella pneumoniae = assay: standard agar dilution assay (MIC); type: cell-based; conditions: UC 58; 24 hours, 28° to 37° C.
Protocol: as §1

[1] = system: Salmonella schottmuelleri; assay: standard agar dilution assay (MIC); type: cell-based; conditions: UC 126; 24 hours, 28° to 37° C.
Protocol: as §1

H. influenzae = assay: standard agar-dilution method, MIC against ampicillin-resistant and ampicillin-susceptible H. influenzae type b; type: cell-based
Protocol: Antibiotic U-62,162 was also tested for activity against a group of ampicillin-resistant and ampicillin-susceptible H. influenzae type b.
A solution of the compound was prepared in dimethylsulfoxide (DMSO), diluted in Brain Heart Infusion Broth (BHIB) and MIC's were determined using the standard agar-dilution method.

stability to pH = type: physicochemical; conditions: pH 8.5 and higher

CC(C)=CC(C)CC(C)/C=C/C(=O)NC1=CC(O)(CCCCC(=O)O)C2OC2C1=O (centres unmarked) [U-62,162]
Solubilities (Solubilities): soluble
potency (BU; amount on a 12 mm disc which will give a 20 mm zone of inhibition) (S. aureus 6029): 800-1500 BU/mg
activity against various Gram-positive bacteria (in words) (Gram-positive bacteria): active
Minimum Inhibitory Concentration (Streptococcus pyogenes): 125 µg/mL
Minimum Inhibitory Concentration (Streptococcus pneumoniae): 1.0 µg/mL
Minimum Inhibitory Concentration (Escherichia coli): > 1000 µg/mL
Minimum Inhibitory Concentration (Pseudomonas aeruginosa): > 1000 µg/mL
Minimum Inhibitory Concentration (Enterococcus sp.): 7.8 µg/mL
Minimum Inhibitory Concentration (Staphylococcus aureus; UC 76): 1.0 µg/mL
Minimum Inhibitory Concentration (Staphylococcus aureus; UC 6685): 1.0 µg/mL
Minimum Inhibitory Concentration (Staphylococcus aureus; UC 6690): 1.0 µg/mL
Minimum Inhibitory Concentration (Streptococcus faecalis): 7.8 µg/mL
Minimum Inhibitory Concentration (Klebsiella pneumoniae): > 1000 µg/mL
Minimum Inhibitory Concentration [1]: > 1000 µg/mL
MIC (H. influenzae; UC 6482, ampicillin susceptible): 62.5 µg/mL (≈ 149 µM)
MIC (H. influenzae; UC 6483, ampicillin resistant): 31.25 µg/mL (≈ 74.5 µM)
MIC (H. influenzae; UC 6484, ampicillin resistant): 31.25 µg/mL (≈ 74.5 µM)
MIC (H. influenzae; UC 6485, ampicillin susceptible): 31.25 µg/mL (≈ 74.5 µM)
MIC (H. influenzae; UC 6486, ampicillin susceptible): 31.25 µg/mL (≈ 74.5 µM)
MIC (H. influenzae; UC 6582, ampicillin resistant): 31.25 µg/mL (≈ 74.5 µM)
MIC (H. influenzae; UC 6583, ampicillin resistant): 31.25 µg/mL (≈ 74.5 µM)
MIC (H. influenzae; UC 6585, ampicillin resistant): 31.25 µg/mL (≈ 74.5 µM)
MIC (H. influenzae; UC 6586, ampicillin resistant): 31.25 µg/mL (≈ 74.5 µM)
MIC (H. influenzae; UC 6587, ampicillin resistant): 31.25 µg/mL (≈ 74.5 µM)
MIC (H. influenzae; UC 6589, ampicillin resistant): 31.25 µg/mL (≈ 74.5 µM)
MIC (H. influenzae; UC 6592, ampicillin resistant): 15.6 µg/mL (≈ 37.2 µM)
MIC (H. influenzae; UC 6595, ampicillin resistant): 31.25 µg/mL (≈ 74.5 µM)
MIC (H. influenzae; UC 6596, ampicillin resistant): 31.25 µg/mL (≈ 74.5 µM)
MIC (H. influenzae; UC 6597, ampicillin susceptible): 31.25 µg/mL (≈ 74.5 µM)
MIC (H. influenzae; UC 6598, ampicillin susceptible): 31.25 µg/mL (≈ 74.5 µM)
activity against H. influenzae type b cultures (in words) (H. influenzae; all of the cultures tested): moderate activity
stability (stability to pH): unstable
